Data published in patent US9434610B2, “HPMA—docetaxel conjugates and uses therefore” (REXAHN PHARMACEUTICALS, INC., priority 2008, dated 2016).

How the values were obtained:
UMRC2 (kidney) = experiment: In vitro cell proliferation (SRB) assay, UMRC2; format: cell-based; conditions: Homo sapiens, 96 hours, drug equivalent
Procedure: (§1) Cancer cell lines to determine the effect of HPMA-drug conjugates were obtained from the following sources: Human MDA-MB-231 (breast), HCT116 (colon) and PANC-1 (pancreas), from the American Type Culture Collection (ATCC) (Manassas, Va.). UMRC2 (kidney) from United States National Cancer Institute (Bethesda, Md.). Cells were maintained in Dulbecco's modified Eagle's medium (“DMEM”, Invitrogen) supplemented with 10% FBS, P/S and 10 mM HEPES. All cells were incubated at 37° C. under humidified 5% CO2.
(§2) The growth inhibition assay of HPMA-drug conjugates against human cancer cell lines was performed using the Sulforhodamine B (“SRB”) method (Skehan et al., J. National Cancer Institute, 82: 1107-1112 (1990)). […] After 5 minutes agitation in 10 mM Tris solution, the absorbance of each well was measured at 530 nm using Benchmark Plus Microplate reader (Bio-Rad Laboratories, Hercules, Calif.). The absorbance value provides a direct measure of the number of live cells post-treatment with HPMA copolymer-drug conjugates.
(§3) To translate the OD530 values into the number of live cells in each well, the OD530 values were compared to those on standard OD530-versus-cell number curves generated for each cell line. The percent survival was calculated using the formula: % Survival=live cell number[test]/live cell number[control]×100
(§4) The IC50 values were calculated by non-linear regression analysis.

MDA-MB-231 (breast) = experiment: In vitro cell proliferation (SRB) assay, MDA-MB-231; format: cell-based; conditions: Homo sapiens, 96 hours, drug equivalent
Procedure: as §1, §2, §3, §4

PANC-1 (pancreas) = experiment: In vitro cell proliferation (SRB) assay, PANC-1; format: cell-based; conditions: Homo sapiens, 96 hours, drug equivalent
Procedure: as §1, §2, §3, §4

HCT116 (colon) = experiment: In vitro cell proliferation (SRB) assay, HCT116; format: cell-based; conditions: Homo sapiens, HCT-116, 96 hours, drug equivalent
Procedure: as §1, §2, §3, §4

[1] = molecular target: glycosylphosphatidylinositol-linked folate receptor (FR); conditions: high affinity folate receptor; cited from earlier work
reduced folate carrier = molecular target: T1, reduced folate carrier (Homo sapiens, UniProt P41440); conditions: low affinity reduced folate carrier, cellular uptake; cited from earlier work
T1 sequence (P41440 1-591): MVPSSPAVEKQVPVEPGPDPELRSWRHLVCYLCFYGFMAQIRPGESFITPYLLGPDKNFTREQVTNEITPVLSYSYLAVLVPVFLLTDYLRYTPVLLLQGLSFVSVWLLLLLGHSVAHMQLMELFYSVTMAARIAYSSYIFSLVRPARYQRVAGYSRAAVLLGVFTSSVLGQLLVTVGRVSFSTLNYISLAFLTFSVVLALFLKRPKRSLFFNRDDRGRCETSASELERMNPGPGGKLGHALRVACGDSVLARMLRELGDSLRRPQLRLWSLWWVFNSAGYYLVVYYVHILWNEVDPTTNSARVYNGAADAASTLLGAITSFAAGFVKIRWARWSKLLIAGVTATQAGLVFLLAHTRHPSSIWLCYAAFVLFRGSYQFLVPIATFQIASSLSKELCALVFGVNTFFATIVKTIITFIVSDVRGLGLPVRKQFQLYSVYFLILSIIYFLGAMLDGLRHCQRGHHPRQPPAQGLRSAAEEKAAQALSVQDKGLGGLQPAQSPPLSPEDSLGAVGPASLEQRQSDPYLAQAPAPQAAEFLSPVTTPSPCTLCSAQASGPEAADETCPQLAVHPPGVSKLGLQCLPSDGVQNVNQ

mucin-1 = mucin-1 (Homo sapiens, UniProt P15941); conditions: specific ligand of mucin-1; cited from earlier work
mucin-1, sequence (P15941 24-1255): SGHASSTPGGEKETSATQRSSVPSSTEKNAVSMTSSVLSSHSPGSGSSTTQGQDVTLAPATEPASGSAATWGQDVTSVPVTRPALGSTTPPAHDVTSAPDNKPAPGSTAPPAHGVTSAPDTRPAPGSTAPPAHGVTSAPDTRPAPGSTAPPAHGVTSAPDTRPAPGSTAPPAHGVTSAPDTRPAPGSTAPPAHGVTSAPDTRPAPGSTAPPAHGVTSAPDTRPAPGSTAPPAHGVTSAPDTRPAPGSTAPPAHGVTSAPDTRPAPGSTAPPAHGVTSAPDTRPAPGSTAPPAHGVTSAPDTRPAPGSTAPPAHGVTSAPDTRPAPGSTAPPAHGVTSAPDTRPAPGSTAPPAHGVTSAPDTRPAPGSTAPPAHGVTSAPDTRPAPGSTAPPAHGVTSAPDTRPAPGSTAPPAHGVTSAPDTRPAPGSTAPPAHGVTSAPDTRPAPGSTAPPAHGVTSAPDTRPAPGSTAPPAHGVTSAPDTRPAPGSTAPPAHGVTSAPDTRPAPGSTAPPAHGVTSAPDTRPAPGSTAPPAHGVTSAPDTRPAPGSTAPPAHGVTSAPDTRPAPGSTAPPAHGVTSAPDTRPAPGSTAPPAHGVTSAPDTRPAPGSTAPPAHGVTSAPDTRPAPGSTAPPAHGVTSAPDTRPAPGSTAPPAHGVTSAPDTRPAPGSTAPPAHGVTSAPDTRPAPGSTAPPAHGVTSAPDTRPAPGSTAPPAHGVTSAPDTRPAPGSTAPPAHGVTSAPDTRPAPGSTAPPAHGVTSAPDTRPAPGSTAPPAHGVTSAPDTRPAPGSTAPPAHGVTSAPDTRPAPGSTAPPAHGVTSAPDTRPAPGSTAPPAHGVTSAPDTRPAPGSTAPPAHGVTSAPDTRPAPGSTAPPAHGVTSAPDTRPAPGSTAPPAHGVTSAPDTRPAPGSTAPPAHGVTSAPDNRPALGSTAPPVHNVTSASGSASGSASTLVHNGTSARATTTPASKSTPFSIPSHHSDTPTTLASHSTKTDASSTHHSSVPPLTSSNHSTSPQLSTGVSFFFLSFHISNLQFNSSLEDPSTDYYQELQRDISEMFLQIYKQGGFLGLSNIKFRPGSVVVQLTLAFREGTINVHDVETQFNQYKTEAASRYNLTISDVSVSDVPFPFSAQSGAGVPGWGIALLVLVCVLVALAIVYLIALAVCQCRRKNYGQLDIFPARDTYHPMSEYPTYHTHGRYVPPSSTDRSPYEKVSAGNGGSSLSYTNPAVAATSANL

| IC50 (MDA-MB-231 (breast)) [µM] | IC50 (PANC-1 (pancreas)) [µM] | IC50 (HCT116 (colon)) [µM] | Compound | IC50 (UMRC2 (kidney)) [µM] | Kd [1] [nM] | Km (reduced folate carrier) [nM] | Kd (mucin-1) [µM] |
| --- | --- | --- | --- | --- | --- | --- | --- |
| 0.00077 | 0.0012 | 0.00055 | CC(=O)O[C@@]12CO[C@@H]1C[C@H](O)[C@@]1(C)C(=O)[C@H](O)C3=C(C)[C@@H](OC(=O)[C@H](O)[C@@H](NC(=O)OC(C)(C)C)c4ccccc4)C[C@@](O)([C@@H](OC(=O)c4ccccc4)[C@H]21)C3(C)C [Docetaxel] | 0.026 | – | – | – |
| 0.22 | 0.59 | 0.056 | Nc1ccn([C@@H]2O[C@H](CO)[C@@H](O)C2(F)F)c(=O)n1 [Gemcitabine] | 0.29 | – | – | – |
| – | – | – | Nc1nc2ncc(CNc3ccc(C(=O)N[C@@H](CCC(=O)O)C(=O)O)cc3)nc2c(=O)[nH]1 [folates, Folic acid] | – | ~0.1 | ~1000 | – |
| – | – | – | synthetic peptide YCAREPPTRTFAYWG (SEQ ID NO: 9), specific ligand of mucin-1 [EPPT1] | – | – | – | 20 |
